# Literature values, collected in patent US11129837B2, “Salicylate compound composition” (Innovate Pharmaceuticals Limited, priority 2014, dated 2021).
# Legend:
# glioma stem cells = conditions: versus normal glial cells or neural stem cells
# rat stomachs = conditions: for effect on PGE2: given either orally or subcutaneously
# [1] = tested on: PGE2 synthesis in C6 cells; conditions: high and low dose
# [2] = human patients
# colorectal cancer = conditions: daily ingestion over an 8-10 year period, at any dose
# [3] = tested on: malignant glioblastoma RG2 cells; conditions: administered the day before tumour cell inoculation and in established tumours
# cancer = conditions: daily aspirin
Compound,growth of glioma stem cells in culture (glioma stem cells),effect on PGE2 (rat stomachs),PGE2 synthesis [1],maximum tolerated dose [2],gastric damage (rat stomachs; given orally or subcutaneously),reduction of CRC-associated mortality (colorectal cancer),reduction of the risk of colorectal cancer (colorectal cancer),apoptosis (A172 glioblastoma cells),growth of RG2 glioblastoma cells in rat [3],reduction of cancer mortality (cancer)
"CC(=O)OCC(COC(C)=O)OC(C)=O [Glycerin triacetate, 1,3-Diacetyloxypropan-2-yl acetate]",slowing the growth,–,–,–,–,–,–,–,–,–
COc1ccc2c(c1)c(CC(=O)O)c(C)n2C(=O)c1ccc(Cl)cc1 [Indomethacin],–,decrease PGE2,–,–,–,–,–,–,–,–
"CC(=O)Oc1ccccc1C(=O)O [aspirin, 2-(acetoxy)benzoic acid]",–,decrease PGE2,directly inhibited PGE2 synthesis,about 4 g,only caused damage when given orally,35%,24%,induced significant apoptosis,significantly inhibited the growth,around 20%
